Assay [1] addresses T1, IDH3B Isocitrate dehydrogenase (Homo sapiens, UniProt O43837).
T1 construct: isoTOP-ABPP experiments performed in cell lysates (in vitro); endogenous in cells; host or cells: MDA-MB-231 soluble lysate
The assay can be described thus: competitive isoTOP-ABPP. The format is binding. A digest of the protocol: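 Cell lysate treated in vitro with fragments (50 μM activated esters, 100 μM guanidinylating agents) or DMSO, labelled 1 h at ambient temperature with 0.1 mM STP-alkyne, CuAAC-tagged with light/heavy TEV tags, analysed by MS. R = DMSO/compound MS1 peak-area ratio; lysines with R≥4 called liganded.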

For assay [2], the system named is soluble proteome of the human breast cancer cell line MDA-MB-231. The assay can be described thus: isoTOP-ABPP, residues labeled by probe 1. It is filed as binding. As to the method: STP-alkyne labeling and click chemistry. For concentration-dependent reactivity measurements by isoTOP-ABPP, 0.5 ml proteome aliquots were treated at ambient temperature with 1 mM STP-alkyne 1 (5 μl of 100 mM stock in DMSO) and 0.1 mM STP alkyne 1 (5 μl of 10 mM stock in DMSO), respectively. For competitive isoTOP-ABPP, after in vitro fragment treatment (detailed above), the samples were labeled for 1 h at ambient temperature with 0.1 mM STP-alkyne 1 (5 μl of 10 mM stock in DMSO). Samples were conjugated by copper-mediated azide-alkyne cycloaddition (CuAAC) to either the light (1 mM STP-alkyne or fragment treated) or heavy (0.1 mM STP-alkyne or DMSO treated) TEV tags (10 μl of 5 mM stocks in DMSO, final concentration=100 μM) using tris(2-carboxyethyl)phosphine hydrochloride
Peptide and protein identification. The MS2 spectra were extracted from the raw file using RAW Xtractor. MS2 spectra were searched using the ProLuCID algorithm using a reverse concatenated, nonredundant variant of the Human UniProt database (release-2012_11). Cysteine residues were searched with a static modification for carboxyamidomethylation (+57.02146). For all competitive and reactivity profiling experiments, lysine residues were searched with up to one differential modification for either the light or heavy TEV tags (+464.2491 or +470.26331, respectively). Peptides were required to have at least one tryptic terminus and to contain the TEV modification. ProLuCID data was filtered through DTASelect (version 2.0) to achieve a peptide false-positive rate below 1%.
Differential labeling analysis of residues labeled by probe 1. For analysis of the residues labeled by probe 1, peptide and protein identification was conducted as detailed above with differential modification for either the light or heavy TEV tags (+464.2491 or +470.26331, respectively) allowed on lysine, arginine, aspartate, glutamate, histidine, serine, threonine, tyrosine, asparagine, glutamine and tryptophan. Cysteine was searched with a differential modification for either the light or heavy TEV tags (+413.24185 and +407.22764, respectively).
To assess the scope and selectivity with which 1 reacted with lysine residues in human cell proteomes, initial isoTOP-ABPP experiments were performed as follows. Two equal amounts of the soluble proteome of the human breast cancer cell line MDA-MB-231 (0.75 mg of protein per sample) were treated with 1 (100 μM, 1 h), and then conjugated by copper-catalyzed azide-alkyne cycloaddition (CuAAC) to isotopically differentiated TEV-cleavable, azide-biotin tags (heavy and light, respectively). The heavy and light-tagged samples were then combined, and 1-labeled proteins enriched by streptavidin and proteolytically digested sequentially with trypsin and TEV protease (to release 1-labeled tryptic peptides from the streptavidin support), furnishing isotopic (heavy/light) peptide pairs that were analyzed by multidimensional liquid chromatography-MS(LC/LC-MS/MS). Measurement of the MS1 chromatographic peak ratios for light/heavy peptide pairs provided an isoTOP-ABPP ratio or R value, which centered on about 1.0 for the more than 5000 probe 1-labeled peptides quantified in this initial study. […] Because lysine modification creates a missed trypsin cleavage site, the fractions of alternative amino-acid modification assignments were further assessed for their occurrence on peptides harboring a missed lysine cleavage site. […]

Setting [3] is: 1 100 μM, 1 h, pilot experiment.

Some results are limits rather than exact numbers.

T1 sequence (O43837 35-385): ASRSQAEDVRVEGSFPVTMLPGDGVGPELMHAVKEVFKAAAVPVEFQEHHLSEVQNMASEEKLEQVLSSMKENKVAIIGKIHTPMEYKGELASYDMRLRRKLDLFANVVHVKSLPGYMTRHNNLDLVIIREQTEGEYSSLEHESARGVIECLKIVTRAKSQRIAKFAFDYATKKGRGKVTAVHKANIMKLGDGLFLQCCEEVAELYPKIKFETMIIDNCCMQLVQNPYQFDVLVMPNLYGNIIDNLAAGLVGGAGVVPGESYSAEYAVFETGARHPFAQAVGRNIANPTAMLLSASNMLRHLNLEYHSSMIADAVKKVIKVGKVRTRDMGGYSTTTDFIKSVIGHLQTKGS

Consider `O=C(Oc1c(F)c(F)c(F)c(F)c1F)C(c1ccccc1)c1ccccc1` [fragment 20, Pentafluorophenyl 2,2-diphenylacetate], for which, in assay [1] (O43837_K207, 50 uM, 231 sol, in vitro), the “R value (DMSO/fragment) for probe 1 labeling” value was 6.5.
Regarding `CC(C)(C)OC(=O)N=C(NC(=O)OC(C)(C)C)n1cccn1` [fragment 50, reference compound], the “isoTOP-ABPP ratio, lysine O43837_K207” value in assay [1] (100 uM_231_sol_in vitro) came to 3.1.
For the compound `C#CCCC(=O)Oc1c(F)c(F)c(S(=O)(=O)[O-])c(F)c1F.[Na+]` [probe 1, reference compound], the “reactivity and selectivity for lysine residues in the human proteome” value in assay [2] (1 100 μM) is “broad reactivity and good selectivity for lysine residues”. The “probe 1-labeled peptides quantified” value in assay [2] (1 100 μM, 1 h) is given as “more than 5000”. Moreover, in assay [2] (setting [3]), the “1-labeled peptides assigned as uniquely modified on lysine residues” value is reported as above 52% and the “remaining 1-labeled peptides assigned with lysine modifications as well as alternative residue modifications” value amounted to 54%. Moreover, in assay [2] (after filtering missed lysine cleavage events), the “probe 1 modifications assigned to serine, of the total 1-labeled peptides” value is reported as “about 8%”.

The values above are taken from patent US20210255193A1, “LYSINE REACTIVE PROBES AND USES THEREOF” (The Scripps Research Institute, priority 2017, published 2021).
